Source: ChEMBL document CHEMBL1201862, “PubChem BioAssay data set” (2004)
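These data come from cells grown in 96-well plates and exposed to compound for 48 hours at five concentrations. The concentration for 50% growth inhibition is given as GI50.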 The source made the active and inactive calls. Cut-off read from the data, not from the text of the source: active = GI50 up to about 1.1 µM and inactive = higher.

Assays:
Experiment in all cases: inhibition of tumour cell growth, NCI panel, 48 h
[1] = tested on: SF-295
[2] = tested on: 786-0
[3] = tested on: HCT-116
[4] = tested on: NCI-H460
[5] = tested on: NCI-H522
[6] = tested on: OVCAR-3
[7] = tested on: SNB-19
[8] = tested on: SR
[9] = tested on: CCRF-CEM
[10] = tested on: LOX IMVI
[11] = tested on: SF-268
[12] = tested on: HOP-62
[13] = tested on: KM12
[14] = tested on: HL-60
[15] = tested on: HT-29
[16] = tested on: COLO 205
[17] = tested on: CAKI-1
[18] = tested on: MDA-MB-435
[19] = tested on: TK-10

Measured: GI50

[N-]=[N+]=CC(=O)OCC1SCCCS1
inactive: [1] > 100 µM | [2] > 100 µM | [3] > 100 µM | [4] 74.6 µM | [5] > 100 µM | [6] > 100 µM | [7] > 100 µM | [8] > 100 µM | [9] > 100 µM | [10] > 100 µM | [11] > 100 µM | [12] 89.7 µM | [13] > 100 µM | [14] > 100 µM | [15] > 100 µM | [16] > 100 µM | [17] 50.4 µM | [18] > 100 µM | [19] > 100 µM

Cc1c(N2C(=O)C(Cl)C2c2ccc(Cl)cc2)c(=O)n(-c2ccccc2)n1C (stereo not given)
inactive: [1] > 100 µM | [2] 33.1 µM | [3] 18.8 µM | [4] > 100 µM | [5] 46.3 µM | [6] 75.3 µM | [8] 26.4 µM | [9] 23.1 µM | [10] 31 µM | [11] > 100 µM | [12] 42 µM | [13] 27.7 µM | [14] > 100 µM | [15] > 100 µM | [16] > 100 µM | [17] > 100 µM | [18] 23.4 µM | [19] > 100 µM

CC1CNC(NS(=O)(=O)c2cc(C(=O)Nc3ccc(Cl)cc3)c(Cl)cc2S)=NN1 (stereo not given)
inactive: [1] 35.8 µM | [2] 42.1 µM | [3] 27 µM | [4] 38.5 µM | [5] 28.2 µM | [6] 28.2 µM | [7] 35.1 µM | [8] 27.2 µM | [9] 34.9 µM | [10] 27.4 µM | [11] 11.5 µM | [12] 41.5 µM | [13] 28.1 µM | [14] > 100 µM | [15] 36.3 µM | [16] 41.7 µM | [17] 51.5 µM | [18] 23.4 µM | [19] 81.7 µM

CCOP(=O)(OCC)C1=C(c2ccccc2)OC(N)=C(C#N)C1c1ccc(Cl)cc1 (stereo not given)
inactive: [1] > 100 µM | [2] > 100 µM | [3] > 100 µM | [4] > 100 µM | [5] 67.9 µM | [6] > 100 µM | [7] > 100 µM | [8] > 100 µM | [9] 30.1 µM | [10] > 100 µM | [11] 38.1 µM | [12] > 100 µM | [13] > 100 µM | [14] > 100 µM | [15] > 100 µM | [16] > 100 µM | [17] > 100 µM | [18] > 100 µM | [19] > 100 µM
